Laboratory results: PMC9913351, “Computational Approach to Drug Penetration across the Blood-Brain and Blood-Milk Barrier Using Chromatographic Descriptors” (Cells, 2023)

Columns and labels:
human serum albumin HSA = molecular target: T1, human serum albumin HSA (Homo sapiens, UniProt P02768); test: HPLC on immobilized human serum albumin column (HPLC-HSA); assay type: in vitro ADME; conditions: for log kHSA: logarithm of retention factor, mobile phase pH 7.4; for kHSA: retention factor, acetate buffer pH 7.4/acetonitrile/methanol 85:10:5
T1 construct: 4 × 10 mm

bovine serum albumin BSA [1] = molecular target: T2, bovine serum albumin BSA (Bos taurus, UniProt P02769); test: RP TLC on silanized RP-2 plates impregnated with bovine serum albumin; assay type: in vitro ADME; conditions: for RP: Rf value from RP plate impregnated with 2 mg/mL BSA solution, mobile phase pH 7.4; for RP/C: Rf from BSA-modified RP-2 plate / Rf from clear one (control)
T2 construct: purchased Sigma Aldrich

[2] = RP TLC on unimpregnated RP-2 control plate; assay type: physicochemical; conditions: Rf value from unimpregnated RP plate (control); mobile phase pH 7.4
[3] = NP TLC on unimpregnated control plate; assay type: physicochemical; conditions: Rf value from unimpregnated NP plate (control); mobile phase pH 7.4
bovine serum albumin BSA [4] = molecular target: T2, bovine serum albumin BSA; test: NP TLC on silica gel plates impregnated with bovine serum albumin; assay type: in vitro ADME; conditions: for NP/C: Rf from BSA-modified NP plate / Rf from clear one (control)
[5] = design: method as in earlier work; conditions: code describing the acid-base properties; source Chembl; cited from earlier work
[6] = HPLC on immobilized artificial membrane column (HPLC-IAM); assay type: physicochemical; conditions: for log kIAM: logarithm of retention factor, mobile phase pH 7.4; for kIAM: retention factor, phosphate buffer pH 7.4/acetonitrile 80:20
[7] = ratio of drug concentration in milk and plasma; cited from earlier work
[8] = Rf value from NP plate impregnated with 2 mg/mL BSA solution, mobile phase pH 7.4
Throughout, for a/b/n code: key: (-1) - acids; (0) - neutrals; (1) - bases.

T2 sequence (P02769 25-607): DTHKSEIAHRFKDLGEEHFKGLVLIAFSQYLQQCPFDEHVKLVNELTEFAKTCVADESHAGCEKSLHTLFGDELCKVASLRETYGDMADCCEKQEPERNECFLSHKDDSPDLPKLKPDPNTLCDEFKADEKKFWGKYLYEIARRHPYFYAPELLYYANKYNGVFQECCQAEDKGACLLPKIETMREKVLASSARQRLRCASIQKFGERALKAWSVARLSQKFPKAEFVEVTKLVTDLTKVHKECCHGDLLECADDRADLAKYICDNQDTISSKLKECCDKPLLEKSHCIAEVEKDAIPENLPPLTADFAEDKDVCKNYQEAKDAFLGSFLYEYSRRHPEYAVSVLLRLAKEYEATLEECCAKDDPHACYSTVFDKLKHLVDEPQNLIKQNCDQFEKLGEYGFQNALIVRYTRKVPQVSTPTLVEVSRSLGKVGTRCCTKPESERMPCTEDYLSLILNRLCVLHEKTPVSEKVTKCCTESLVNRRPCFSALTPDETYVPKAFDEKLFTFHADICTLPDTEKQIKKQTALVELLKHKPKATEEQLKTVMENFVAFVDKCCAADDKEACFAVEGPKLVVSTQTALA
T1 sequence (P02768 25-609): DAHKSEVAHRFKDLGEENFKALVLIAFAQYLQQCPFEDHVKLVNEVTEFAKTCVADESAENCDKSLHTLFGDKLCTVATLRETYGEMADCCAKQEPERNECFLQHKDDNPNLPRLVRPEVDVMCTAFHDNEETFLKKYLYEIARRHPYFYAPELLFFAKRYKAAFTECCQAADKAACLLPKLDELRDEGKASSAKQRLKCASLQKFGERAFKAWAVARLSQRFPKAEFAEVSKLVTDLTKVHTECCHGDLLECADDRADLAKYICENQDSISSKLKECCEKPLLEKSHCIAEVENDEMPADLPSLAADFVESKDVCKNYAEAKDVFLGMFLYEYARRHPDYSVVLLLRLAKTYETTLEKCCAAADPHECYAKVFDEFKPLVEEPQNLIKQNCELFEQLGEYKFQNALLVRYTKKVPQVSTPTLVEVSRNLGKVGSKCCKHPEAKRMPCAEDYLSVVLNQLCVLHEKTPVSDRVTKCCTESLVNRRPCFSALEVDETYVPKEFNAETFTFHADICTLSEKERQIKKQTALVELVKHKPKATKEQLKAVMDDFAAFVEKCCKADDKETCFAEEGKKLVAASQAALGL

Row | Compound | log kHSA (human serum albumin HSA) | kHSA (human serum albumin HSA) | RP (bovine serum albumin BSA [1]) | CRP [2] | CNP [3] | NP/C (bovine serum albumin BSA [4]) | NP (bovine serum albumin BSA [4]; [8]) | RP/C (bovine serum albumin BSA [1]) | a/b/n code [5] | log kIAM [6] | kIAM [6] | NP (bovine serum albumin BSA [4]; pH 7.4) | M/P ratio [7]
1 | CC(=O)Nc1nnc(S(N)(=O)=O)s1 [acetazolamid] | -0.13 | 0.74 | 0.96 | 0.97 |  |  |  |  |  |  |  |  | 
2 | CN(C)CCC=C1c2ccccc2CCc2ccccc21 [amitriptyline] | 0.77 | 5.87 | 0.63 | 0.67 | 0.32 | 0.97 | 0.31 | 0.94 | 1 |  |  |  | 
3 | CCCCN1CCCCC1C(=O)Nc1c(C)cccc1C (stereo not shown) [bupivacaine] | 0.07 | 1.18 | 0.75 | 0.74 | 0.67 | 1.00 | 0.67 | 1.01 | 0 |  |  |  | 
4 | CCN(CC)CCCC(C)Nc1ccnc2cc(Cl)ccc12 (stereo not shown) [chloroquine] |  |  |  |  |  |  |  |  |  | 0.49 |  |  | 
5 | CN(C)CCCC1(c2ccc(F)cc2)OCc2cc(C#N)ccc21 (stereo not shown) [citalopram] |  |  |  |  |  |  |  |  |  | 0.50 | 3.14 |  | 
6 | CN(C)CCCN1c2ccccc2CCc2ccc(Cl)cc21 [clomipramine] |  |  |  |  |  |  |  |  |  |  | 3.05 |  | 
7 | CN(C)CCC=C1c2ccccc2COc2ccccc21 [doxepin] | 0.63 | 4.25 | 0.54 |  | 0.30 | 1.03 | 0.31 | 0.93 | 1 | 0.45 | 2.81 |  | 
8 | CNCC[C@H](Oc1cccc2ccccc12)c1cccs1 [duloxetine] | 0.91 | 8.16 |  |  |  |  |  |  |  | 0.45 | 2.84 |  | 
9 | CN1CCC[C@@H]1Cc1c[nH]c2ccc(CCS(=O)(=O)c3ccccc3)cc12 [eletriptan] | 0.58 | 3.78 |  |  |  |  |  |  | 1 | 0.55 | 3.57 |  | 
10 | CC[C@@H](CO)NCCN[C@@H](CC)CO [ethambutol] | 0.24 | 1.73 | 0.95 | 0.97 | 0.19 | 1.11 | 0.21 | 0.98 | 1 | 0.34 | 2.18 |  | 
11 | COCCCC/C(=N\OCCN)c1ccc(C(F)(F)F)cc1 [fluvoxamine] |  |  |  |  | 0.34 |  |  |  |  |  |  |  | 
12 | NCC1(CC(=O)O)CCCCC1 [gabapentin] | -0.84 | 0.15 |  |  |  |  |  |  |  | 0.23 | 1.70 |  | 
13 | NS(=O)(=O)c1cc2c(cc1Cl)NCNS2(=O)=O [hydrochlorotiazide] |  |  |  |  |  |  |  |  |  | 0.30 | 2.01 |  | 
14 | CCC(C)n1ncn(-c2ccc(N3CCN(c4ccc(OCC5COC(Cn6cncn6)(c6ccc(Cl)cc6Cl)O5)cc4)CC3)cc2)c1=O (stereo not shown) [itraconazole] | 0.98 | 9.65 | 0.84 | 0.86 | 0.96 | 1.01 | 0.97 | 0.98 | 0 | 0.79 | 6.15 |  | 
15 | O=C(c1ccccc1)c1ccc2n1CCC2C(=O)O (stereo not shown) [ketorolac] | 0.98 | 9.65 | 0.96 | 0.96 | 0.92 | 0.99 | 0.91 | 1.00 | -1 | 0.38 | 2.39 |  | 
16 | CC[C@@H](C(N)=O)N1CCCC1=O [levetiracetam] | -1.16 | 0.07 | 0.92 | 0.92 | 0.92 | 1.00 | 0.92 | 1.00 | 0 | 0.21 | 1.62 |  | 
17 | CCC[C@@H]1C[C@@H](C(=O)N[C@@H]([C@H]2O[C@H](SC)[C@H](O)[C@@H](O)[C@H]2O)[C@@H](C)O)N(C)C1 [lincomycin] | -0.08 | 0.82 |  |  | 0.91 | 1.00 | 0.91 |  | 1 | 0.59 | 3.89 |  | 

Row | Compound | log kHSA (human serum albumin HSA) | kHSA (human serum albumin HSA) | RP (bovine serum albumin BSA [1]) | CRP [2] | CNP [3] | NP/C (bovine serum albumin BSA [4]) | NP (bovine serum albumin BSA [4]; [8]) | RP/C (bovine serum albumin BSA [1]) | a/b/n code [5] | log kIAM [6] | kIAM [6] | NP (bovine serum albumin BSA [4]; pH 7.4) | M/P ratio [7]
18 | Nc1ccc(O)c(C(=O)O)c1 [mesalazine] | -0.73 | 0.18 | 0.97 | 0.99 |  |  |  | 0.98 | -1 | 0.11 | 1.28 |  | 
19 | Nc1cc(N2CCCCC2)nc(N)[n+]1[O-] [minoxidil] |  |  |  |  |  |  |  |  |  | 0.29 | 1.96 |  | 
20 | CCOC(=O)C1=C(C)NC(C)=C(C(=O)OC)C1c1cccc([N+](=O)[O-])c1 (stereo not shown) [nitrendipine] | 0.55 | 3.55 | 0.86 | 0.86 | 0.97 | 1.00 | 0.97 | 1.00 | 0 | 0.47 | 2.98 |  | 
21 | CC1COc2c(N3CCN(C)CC3)c(F)cc3c(=O)c(C(=O)O)cn1c23 (stereo not shown) [ofloxacin] |  |  |  |  | 0.24 |  |  |  |  | 0.49 | 3.07 | 0.23 | 
22 | NC(=O)N1c2ccccc2CC(=O)c2ccccc21 [oxcarbamazepine] | -0.40 | 0.40 | 0.91 | 0.91 | 0.91 |  | 0.90 |  |  | 0.35 | 2.26 |  | 
23 | CC(C)C[C@H](CN)CC(=O)O [pregabalin] | -0.87 | 0.14 |  |  |  |  |  |  |  | 0.22 | 1.65 |  | 
24 | CCC1(c2ccccc2)C(=O)NCNC1=O [primidone] | -0.66 | 0.22 | 0.97 | 0.93 | 0.90 | 1.03 | 0.93 | 1.04 | 0 | 0.31 | 2.02 |  | 
25 | CCCc1cc(=O)[nH]c(=S)[nH]1 [propylthiouracil] |  |  |  |  |  |  |  |  |  | 0.18 | 1.51 |  | 
26 | C=C[C@H]1C[N@@]2CC[C@H]1C[C@H]2[C@H](O)c1ccnc2ccc(OC)cc12 [quinine] |  |  |  |  |  |  |  |  |  | 0.49 | 3.06 |  | 
27 | CO[C@H]1/C=C/O[C@@]2(C)Oc3c(C)c(O)c4c(O)c(c(/C=N/N5CCN(C)CC5)c(O)c4c3C2=O)NC(=O)/C(C)=C\C=C\[C@H](C)[C@H](O)[C@@H](C)[C@@H](O)[C@@H](C)[C@H](OC(C)=O)[C@@H]1C [rifampicin] | -1.53 | 0.03 | 0.94 | 0.95 | 0.73 |  | 0.77 |  |  | 0.92 | 8.37 |  | 
28 | CC(N)C12CC3CC(CC(C3)C1)C2 (stereo not shown) [rimantadine] | -0.80 | 0.16 | 0.95 | 0.95 | 0.92 | 1.00 | 0.92 | 1.00 | 1 | 0.28 | 1.91 |  | 
29 | CN[C@H]1CC[C@@H](c2ccc(Cl)c(Cl)c2)c2ccccc21 [sertraline] |  |  |  |  |  |  |  |  |  |  |  |  | above 1
30 | CC(C)(C)NC[C@H](O)COc1nsnc1N1CCOCC1 [timolol] |  | 0.13 | 0.97 | 0.97 | 0.34 |  | 0.32 |  |  |  | 2.88 |  | 
31 | CCS(=O)(=O)CCn1c([N+](=O)[O-])cnc1C [tinidazole] | -0.92 | 0.12 |  |  | 0.89 |  | 0.88 |  |  | 0.30 | 2.00 |  | 
32 | COc1cc(Cc2cnc(N)nc2N)cc(OC)c1OC [trimethoprim] |  |  |  |  | 0.57 |  | 0.59 |  |  |  |  |  | 
33 | CC(=O)CC(c1ccccc1)c1c(O)c2ccccc2oc1=O (stereo not shown) [warfarin] |  |  |  |  |  |  |  |  |  | 0.44 | 2.76 |  | 
34 | gentamycin |  |  |  |  | 0.96 |  |  |  | 1 | 0.63 | 4.25 |  | 
